The results in this text go back to article PMC12705613 (Frontiers in Microbiology, 2025).

For data set [1], the system named is Limosilactobacillus reuteri (JCM 1112). The data set can be described thus: Co-incubation of drug with L. reuteri (degradation, growth). It counts as in vitro ADME. The conditions noted are these: tested concentrations; OD600. As to the method: (§1) Enterococcus faecalis (ATCC 51299, BNCC) was cultured in modified brain heart infusion (BHI) broth supplemented with L-cysteine HCl (0.5 g/L), vitamin K1 (10 mg/L), hemin (5 mg/L) and resazurin (1 mg/L). Limosilactobacillus reuteri (JCM 1112, Guangdong Academy of Sciences) was cultured in MRS medium at 37 °C in an anaerobic chamber (5%H2, 5%CO2 and 90%N2). Drug metabolism assays were performed in 96-well plates under optimal growth conditions for each strain. […] Each experiment comprised three biological replicates, including a bacteria-free control. The growth of strains was monitored by measuring OD600 (Eon Microplate Spectrophotometer, BioTek) every 2 h for the first 10 h, followed by 12 to 24 h intervals until 72 h. Supernatants were withdrawn at 6, 12, 24, 48, and 72 h. The remaining drug content and the formation of E-3179 were quantified via UHPLC-TQ-MS. The sample preparation for quantitative analysis was the same as in section 2.3.

Data set [2] is described as follows: Metabolites detection in vivo in plasma, feces and urine (UHPLC-Q-TOF-MS). More on the design: species or system rat. Particulars: single oral losartan potassium 20 mg/kg. How it is done:
For urine and feces, cumulative samples were collected over the following time intervals: 0–4, 4–8, 8–12, and 12–24 h after administration. The processing of the biological samples can be found in the Supplementary material.
The biological samples were processed as follows: For plasma, a total of 400 μL of pooled plasma was mixed by combining 50 μL aliquots from each time point. A 100 μL aliquot was mixed with 300 μL of methanol, vortexed for one minute, and centrifuged at 5,000 rpm for 10 minutes at 4°C [1]. In the case of urine, 1 mL was centrifuged at 4,000 rpm for 20 minutes at 4°C, and the supernatant was mixed with 2 mL of methanol, vortexed for one minute, and centrifuged at 12,000 rpm for 10 minutes at 4°C [2]. For fecal samples, 1.0 g of homogenized feces was extracted with 4 mL of methanol, sonicated in an ice-water bath for 20 minutes, and then centrifuged at 12,000 rpm for 10 minutes at 4°C [3]. Supernatants from the plasma, urine, and fecal extracts were evaporated under nitrogen gas, redissolved in methanol, and transferred to liquid chromatography vials. Samples were analyzed using UHPLC-Q-TOF-MS/MS for metabolite profiling.

A short description of data set [3]: Stability of the analytes in rat plasma at different storage conditions. It counts as in vitro ADME. As to the method:
Analysis of QC samples was performed according to a standard curve, which was obtained from freshly prepared calibration standard samples. The autosampler stability was determined by placing samples in the autosampler rack at 8 ℃ for 24 h. The freeze-thaw stability was evaluated after three complete freeze-thaw cycles (-80 ℃ to 25 ℃) on consecutive days. The short-term stability was determined after samples were exposed to room temperature for 6 h. The long-term stability was assessed after storing the samples at -80 ℃ for 30 days. The analytes were considered stable if the deviation between the mean measured concentration and the nominal concentration was within ± 15.0%.

In a further data set the test system is gut microbiota from WKYs. The data set can be described thus: Anaerobic incubation of drug with fecal gut microbiota from WKYs. Format: in vitro ADME, rat. Particulars: for Qualitative analysis: metabolism to other compounds: WKY gut microbiota in vitro, UHPLC-Q-TOF-MS; for Remaining content: WKY gut microbiota, 40 μM drug, anaerobic 37 °C, mGAM. How it is done: Fresh fecal samples from WKYs and SHRs were collected and immediately transferred to an anaerobic chamber (90% N₂, 5% CO₂, 5% H₂). Fecal suspensions were prepared by homogenizing 1 g of feces in 15 mL of sterile phosphate-buffered saline containing 0.1% L-cysteine. […] Bacteria-free controls contained equivalent drug volumes consistently. […] Drug remaining content and non-target metabolites screen were detected by ultra-high performance liquid chromatography coupled with triple quadrupole mass spectrometry (UHPLC-TQ-MS) and ultra-high performance liquid chromatography with quadrupole time-of-flight mass spectrometry (UHPLC-Q-TOF-MS), respectively. The sample preparation process can be found in the Supplementary material. For UHPLC-Q-TOF-MS analysis, the MS parameters and IDA criteria can be seen in Supplementary Table S1.
The sample processing procedures were tailored to align with the experimental objectives. For qualitative metabolite profiling, supernatants from the co-incubation of bacteria and drugs were collected at designated time points, filtered using a 0.22 μm membrane, lyophilized, and reconstituted in 200 μL of methanol. After vortexing and centrifuging for 10 minutes at 4°C and 12,000 rpm, the supernatant was transferred to an LC vial, and 5 μL aliquot was injected into the UHPLC-Q-TOF-MS/MS. For quantitative analysis, 100 μL aliquots were taken from the co-incubation supernatant and spiked with 1,000 μL of methanol containing 500 ng/mL of irbesartan. Following one minute of vortexing and centrifugation at 12,000 rpm for 10 minutes, the resulting supernatant was transferred to an LC vial, and a 5μL aliquot was injected into the UHPLC-TQ-MS/MS.

Data set [4] deals with Enterococcus faecalis (ATCC 51299). It counts as in vitro ADME. The conditions noted are these: tested concentrations; OD600. How it is done: as §1
Setting [5] is: autosampler for 24 h (8 ℃), high nominal conc. (losartan 8000, E-3174 4000, E-3179 1600 ng/mL).
Setting [6] is: autosampler for 24 h (8 ℃), low nominal conc. (losartan 0.2, E-3174 10, E-3179 0.4 ng/mL).
Where [7] appears, read: autosampler for 24 h (8 ℃), middle nominal conc. (losartan 2000, E-3174 1000, E-3179 400 ng/mL).
[8] abbreviates: room temperature for 6 h, high nominal conc. (losartan 8000, E-3174 4000, E-3179 1600 ng/mL).
Setting [9] is: room temperature for 6 h, low nominal conc. (losartan 0.2, E-3174 10, E-3179 0.4 ng/mL).
[10] abbreviates: room temperature for 6 h, middle nominal conc. (losartan 2000, E-3174 1000, E-3179 400 ng/mL).
The mark [11] stands for this setting: three freeze-thaw cycles, high nominal conc. (losartan 8000, E-3174 4000, E-3179 1600 ng/mL).
The mark [12] stands for this setting: three freeze-thaw cycles, low nominal conc. (losartan 0.2, E-3174 10, E-3179 0.4 ng/mL).
Where [13] appears, read: three freeze-thaw cycles, middle nominal conc. (losartan 2000, E-3174 1000, E-3179 400 ng/mL).
Where [14] appears, read: −80°C for 30 days, high nominal conc. (losartan 8000, E-3174 4000, E-3179 1600 ng/mL).
Setting [15] is: −80°C for 30 days, low nominal conc. (losartan 0.2, E-3174 10, E-3179 0.4 ng/mL).
Setting [16] is: −80°C for 30 days, middle nominal conc. (losartan 2000, E-3174 1000, E-3179 400 ng/mL).

As to `CCCCc1nc(Cl)c(C(=O)O)n1Cc1ccc(-c2ccccc2-c2nnn[nH]2)cc1` [E-3174], the “Inhibition of growth of L. reuteri” value in data set [1] is “did not inhibit the growth”. The “Abundance in feces and plasma, SHRs vs WKYs” value in data set [2] is recorded as “lower in SHRs than in WKYs”. Also, the “Stability RE” value in data set [3] (setting [5]) was 2.69%; in data set [3] (setting [6]), -4.63%; in data set [3] (setting [7]), -1.40%; in data set [3] (setting [8]), 0.27%; in data set [3] (setting [9]), 3.95%; in data set [3] (setting [10]) it was 11.23%. Moreover, the “Stability RE” value was 5.22% in data set [3] (setting [11]); 0.33% in data set [3] (setting [12]); 8.12% in data set [3] (setting [13]); 5.50% in data set [3] (setting [14]); 1.75% in data set [3] (setting [15]); 5.09% in data set [3] (setting [16]). In addition, the “Qualitative analysis: metabolism to other compounds” value in the data set with gut microbiota from WKYs is “neither losartan nor E-3174 was metabolized to other compounds”. The Remaining content with gut microbiota from WKYs (0 h) came out at 37.45 ± 1.33 µM; in the data set with gut microbiota from WKYs (12 h), 41.40 ± 1.42 µM; in the data set on gut microbiota from WKYs (24 h), 39.27 ± 1.11 µM; in the data set on gut microbiota from WKYs (48 h) it was 31.95 ± 1.41 µM. Further, the “Inhibition of growth of E. faecalis” value in data set [4] is given as “did not inhibit the growth”.
As to `CCCCc1nc(Cl)c(CO)n1Cc1ccc(-c2ccccc2-c2nn[nH]n2)cc1` [Losartan, Losartan potassium], the “Inhibition of growth of L. reuteri” value in data set [1] was “did not inhibit the growth”. The “Abundance in feces and plasma, SHRs vs WKYs” value in data set [2] was “lower in SHRs than in WKYs”. Besides, the “Abundance in urine, SHRs vs WKYs” value in data set [2] was “more abundant in urine”. In addition, the “Stability RE” value is reported as 8.67% in data set [3] (setting [5]); -4.05% in data set [3] (setting [6]); 12.50% in data set [3] (setting [7]); 5.37% in data set [3] (setting [8]); 12.66% in data set [3] (setting [9]); 10.42% in data set [3] (setting [10]). The “Stability RE” value in data set [3] (setting [11]) is on record as 6.18%; in data set [3] (setting [12]), -2.68%; in data set [3] (setting [13]), 9.49%; in data set [3] (setting [14]), 4.25%; in data set [3] (setting [15]) it was -7.51%; in data set [3] (setting [16]), 12.98%. Besides, the “Qualitative analysis: metabolism to other compounds” value in the data set with gut microbiota from WKYs is “neither losartan nor E-3174 was metabolized to other compounds”. Further, the Remaining content in the data set with gut microbiota from WKYs (0 h) came out at 37.78 ± 2.05 µM; in the data set with gut microbiota from WKYs (12 h), 36.96 ± 2.06 µM; in the data set with gut microbiota from WKYs (24 h) it was 36.03 ± 0.78 µM; in the data set on gut microbiota from WKYs (48 h) it was 33.85 ± 0.96 µM. The “Inhibition of growth of E. faecalis” value in data set [4] is on record as “did not inhibit the growth”.
